Assay results reported in patent US20140045823A1 (Neurocrine Biosciences, Inc., priority 2012, published 2014).

These molecules were tested against T1, human GPR119 (Homo sapiens, UniProt Q8TDV5) (assay: AlphaScreen cAMP assay in MIN6 cells stably transfected with human GPR119). Conditions: Min-6/hGPR119 cells, 45 min at room temperature.
T1 construct: expression vector for human GPR119 cDNA (Acc. No. NP_848566); expressed in transfected cells; Min-6/hGPR119
T1 sequence (Q8TDV5 1-335): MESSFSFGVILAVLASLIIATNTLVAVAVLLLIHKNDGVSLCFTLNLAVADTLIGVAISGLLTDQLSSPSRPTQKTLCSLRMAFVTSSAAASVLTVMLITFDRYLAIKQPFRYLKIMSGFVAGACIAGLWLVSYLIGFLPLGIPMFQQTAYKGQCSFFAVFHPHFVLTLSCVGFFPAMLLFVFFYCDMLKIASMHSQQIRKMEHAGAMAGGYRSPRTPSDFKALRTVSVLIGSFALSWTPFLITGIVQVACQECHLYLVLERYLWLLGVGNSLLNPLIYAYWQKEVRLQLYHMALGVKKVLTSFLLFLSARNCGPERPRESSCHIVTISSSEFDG
Type: cell-based
Protocol: The compounds of formula I according to the invention modulate the activity of the G-protein-coupled receptor GPR119. The effect of the compounds on the activation of GPR119 and on the stimulation of intracellular cAMP concentration is determined using the AlphaScreen cAMP Assay Kit (Cat. No. #6760625R) made by PerkinElmer.
MIN6 cells [Miyazaki J et al. Endocrinology. 1990 July; 127(1):126-32] are stably transfected with an expression vector for human GPR119 cDNA (Acc. No. NP_848566). Min-6/hGPR119 cells are cultured in DMEM, 10% FBS, 50 μM β-mercaptoethanol, 0.3 mg/mL Geniticin, 2 mM GlutaMAX at 37° C. 5% CO2. For the assay, the cells are seeded in Optiplates (white, 384-well, 160 W—barcoded, TC, sterile with lid, Cat. No. #6007688 (Perkin Elmer); 10000 cells/well; 50 μl). The plates covered with lids are then incubated for 24 hours at 37° C./5% CO2. After the medium is aspirated from the wells completely, 10 μl of the test compound are added, the compounds are diluted using stimulating buffer (140 mM NaCl, 3.6 mM KCl, 0.5 mM NaH2PO4, 0.5 mM MgSO4, 1.5 mM CaCl2, 10 mM Hepes, 5 mM NaHCO3; pH 7.4. 0.5 mM IBMX and 0.1% BSA, the final DMSO concentration is 1%). After 45 minutes incubation at room temperature (approx. 20° C.), the cAMP concentrations are determined using the AlphaScreen cAMP Assay Kit (Cat. No. #6760625R from PerkinElmer).

EC50	Compound
3.75 µM	Cc1cc(C)n(-c2ncc(C(=O)N(C3CC3)C3CCN(C(=O)OC(C)(C)C)CC3)cn2)n1 [Example 57, 4-{Cyclopropyl-[2-(3,5-dimethyl-pyrazol-1-yl)-pyrimidine-5-carbonyl]-amino}-piperidine-1-carboxylic acid tert-butyl ester]
0.171 µM	CCNC(=O)c1ccc(-c2ncc(C(=O)N(C3CC3)C3CCN(C(=O)OC(C)(C)C)CC3)cn2)cc1 [Example 86, 4-{Cyclopropyl-[2-(4-ethylcarbamoyl-phenyl)-pyrimidine-5-carbonyl]-amino}-piperidine-1-carboxylic acid tert-butyl ester]
0.009 µM	CC(C)(C)OC(=O)N1CCC(N(C(=O)c2cnc(-c3ccc(CC#N)cc3)nc2)C2CC2)CC1 [Example 78, 4-{[2-(4-Cyanomethyl-phenyl)-pyrimidine-5-carbonyl]-cyclopropyl-amino}-piperidine-1-carboxylic acid tert-butyl ester]
0.105 µM	CC(C)(C)OC(=O)N1CCC(N(C(=O)c2cnc(-c3ccc(C(=O)NCCOC(F)(F)F)c(F)c3)nc2)C2CC2)CC1 [Example 142, 4-(Cyclopropyl-{2-[3-fluoro-4-(2-trifluoromethoxy-ethylcarbamoyl)-phenyl]-pyrimidine-5-carbonyl}-amino)-piperidine-1-carboxylic acid tert-butyl ester]
0.168 µM	CC(C)(C)OC(=O)N1CCC(N(C(=O)c2cnc(-c3ccc(C(=O)NC4CCCOC4)c(F)c3)nc2)C2CC2)CC1 (stereo not shown) [Example 103, 4-(Cyclopropyl-{2-[3-fluoro-4-(tetrahydro-pyran-3-ylcarbamoyl)-phenyl]-pyrimidine-5-carbonyl}-amino)-piperidine-1-carboxylic acid tert-butyl ester]
0.307 µM	COC[C@H]1CCCN1C(=O)Cc1ccc(-c2ncc(C(=O)N(C3CC3)C3CCN(C(=O)OC(C)(C)C)CC3)cn2)cc1 [Example 235, 4-[Cyclopropyl-(2-{4-[2-(2-methoxymethyl-pyrrolidin-1-yl)-2-oxo-ethyl]-phenyl}-pyrimidine-5-carbonyl)-amino]-piperidine-1-carboxylic acid tert-butyl ester]
0.521 µM	CC(C)(C)OC(=O)N1CCC(N(C(=O)c2cnc(-c3ccc(CC(=O)NC4CCOCC4)cc3)nc2)C2CC2)CC1 [Example 213, 4-[Cyclopropyl-(2-{4-[(tetrahydro-pyran-4-ylcarbamoyl)-methyl]-phenyl}-pyrimidine-5-carbonyl)-amino]-piperidine-1-carboxylic acid tert-butyl ester]
0.456 µM	CN(CCC#N)C(=O)c1ccc(-c2ncc(C(=O)N(C3CC3)C3CCN(C(=O)OC(C)(C)C)CC3)cn2)cc1 [Example 177, 4-[(2-{4-[(2-Cyano-ethyl)-methyl-carbamoyl]-phenyl}-pyrimidine-5-carbonyl)-cyclopropyl-amino]-piperidine-1-carboxylic acid tert-butyl ester]
0.051 µM	CC(C)(C)OC(=O)N1CCC(N(C(=O)c2cnc(-n3ccnc3)nc2)C2CC2)CC1 [Example 247]
0.061 µM	C[C@H](OC(=O)N1CCC(N(C(=O)c2cnc(-c3cnco3)cn2)C2CC2)CC1)C(F)(F)F [Example 258, 4-[Cyclopropyl-(5-oxazol-5-yl-pyrazine-2-carbonyl)-amino]-piperidine-1-carboxylic acid (S)-2,2,2-trifluoro-1-methyl-ethyl ester]
0.025 µM	Cc1c(C(=O)N(C2CC2)C2CCN(C(=O)OC(C)(C)C)CC2)noc1-c1ccc(C#N)c(F)c1 [Example 45, 4-{[5-(4-Cyano-3-fluoro-phenyl)-4-methyl-isoxazole-3-carbonyl]-cyclopropyl-amino}-piperidine-1-carboxylic acid tert-butyl ester]
0.297 µM	COCC1CCCCN1C(=O)c1ccc(-c2ncc(C(=O)N(C3CC3)C3CCN(C(=O)OC(C)(C)C)CC3)cn2)cc1F (stereo not shown) [Example 149, 4-(Cyclopropyl-{2-[3-fluoro-4-(2-methoxymethyl-piperidine-1-carbonyl)-phenyl]-pyrimidine-5-carbonyl}-amino)-piperidine-1-carboxylic acid tert-butyl ester]
0.81 µM	CC(C)(C)OC(=O)N1CCC(N(C(=O)c2cnc(-n3cnnc3)nc2)C2CC2)CC1 [Example 100, 4-[Cyclopropyl-(2-[1,2,4]triazol-4-yl-pyrimidine-5-carbonyl)-amino]-piperidine-1-carboxylic acid tert-butyl ester]
1.46 µM	Cn1cc(-c2ccc(C(=O)N(C3CC3)C3CCN(C(=O)OC(C)(C)C)CC3)cn2)ccc1=O [Example 4, 4-[Cyclopropyl-(1′-methyl-6′-oxo-1′,6′-dihydro-[2,3′]bipyridinyl-5-carbonyl)-amino]-piperidine-1-carboxylic acid tert-butyl ester]
0.349 µM	CC(C)(C)OC(=O)N1CCC(N(C(=O)c2cnc(-n3cnc(CO)c3)nc2)C2CC2)CC1 [Example 94, 4-{Cyclopropyl-[2-(4-hydroxymethyl-imidazol-1-yl)-pyrimidine-5-carbonyl]-amino}-piperidine-1-carboxylic acid tert-butyl ester]
0.346 µM	CC(C)(C)OC(=O)N1CCC(N(C(=O)c2cnc(-c3ccc(C(=O)Nc4ccc(CO)cc4)cc3)nc2)C2CC2)CC1 [Example 176, 4-(Cyclopropyl-{2-[4-(4-hydroxymethyl-phenylcarbamoyl)-phenyl]-pyrimidine-5-carbonyl}-amino)-piperidine-1-carboxylic acid tert-butyl ester]
0.219 µM	CC(C)(C)OC(=O)N1CCC(N(C(=O)c2ncc(-c3ccc(CC#N)cc3)cn2)C2CC2)CC1 [Example 67]
0.11 µM	CN(CC#N)C(=O)c1ccc(-c2ncc(C(=O)N(C3CC3)C3CCN(C(=O)OC(C)(C)C)CC3)cn2)cc1 [Example 221, 4-({2-[4-(Cyanomethyl-methyl-carbamoyl)-phenyl]-pyrimidine-5-carbonyl}-cyclopropyl-amino)-piperidine-1-carboxylic acid tert-buyl ester]
0.086 µM	CC(C)(C)OC(=O)N1CCC(N(C(=O)c2cnc(-c3ccc(S(C)(=O)=O)c(F)c3)o2)C2CC2)CC1 [Example 34, 4-{Cyclopropyl-[2-(3-fluoro-4-methanesulfonyl-phenyl)-oxazole-5-carbonyl]-amino}-piperidine-1-carboxylic acid tert-butyl ester]
0.22 µM	CC(C)(C)OC(=O)N1CCC(N(C(=O)c2cnc(-c3ccc(C(=O)Nc4ccn[nH]4)c(F)c3)nc2)C2CC2)CC1 [Example 112, 4-(Cyclopropyl-{2-[3-fluoro-4-(2H-pyrazol-3-ylcarbamoyl)-phenyl]-pyrimidine-5-carbonyl}-amino)-piperidine-1-carboxylic acid tert-butyl ester]
0.424 µM	CC(C)(C)OC(=O)N1CCC(N(C(=O)c2cnc(-c3ccc(C(=O)N4CCC(C#N)C4)cc3)nc2)C2CC2)CC1 (stereo not shown) [Example 239, 4-({2-[4-(3-Cyano-pyrrolidine-1-carbonyl)-phenyl]-pyrimidine-5-carbonyl}-cyclopropyl-amino)-piperidine-1-carboxylic acid tert-butyl ester]
0.253 µM	COCC(C)N(C)C(=O)c1ccc(-c2ncc(C(=O)N(C3CC3)C3CCN(C(=O)OC(C)(C)C)CC3)cn2)cc1F (stereo not shown) [Example 106, 4-[Cyclopropyl-(2-{3-fluoro-4-[(2-methoxy-1-methyl-ethyl)-methyl-carbamoyl]-phenyl}-pyrimidine-5-carbonyl)-amino]-piperidine-1-carboxylic acid tert-butyl ester]
0.037 µM	Cc1nccn1-c1ncc(C(=O)N(C2CC2)C2CCN(C(=O)OC(C)(C)C)CC2)cn1 [Example 99, 4-{Cyclopropyl-[2-(2-methyl-imidazol-1-yl)-pyimidine-5-carbonyl]-amino}-piperidine-1-carboxylic acid tert-butyl ester]
0.508 µM	CC(C)(O)CNC(=O)c1ccc(-c2ncc(C(=O)N(C3CC3)C3CCN(C(=O)OC(C)(C)C)CC3)cn2)cc1F [Example 154, 4-(Cyclopropyl-{2-[3-fluoro-4-(2-hydroxy-2-methyl-propylcarbamoyl)-phenyl]-pyrimidine-5-carbonyl}-amino)-piperidine-1-carboxylic acid tert-butyl ester]
0.109 µM	CC(C)(C)OC(=O)N1CCC(N(C(=O)c2cnc(-c3ccc(C(=O)Nc4ccccc4)c(F)c3)nc2)C2CC2)CC1 [Example 153, 4-{Cyclopropyl-[2-(3-fluoro-4-phenylcarbamoyl-phenyl)-pyrimidine-5-carbonyl]-amino}-piperidine-1-carboxylic acid tert-butyl ester]
